Assay results: ChEMBL document CHEMBL5223063, “Recent advances in urea- and thiourea-containing compounds: focus on innovative approaches in medicinal chemistry and organic synthesis” (RSC Med Chem, 2021)

Assays:
[1] = Permeability coefficient of the compound in human Caco-2 cells; format: ADME, cell-based; details: read-out: Kp
[2] = Oral bioavailability in rat; format: ADME, organism-based; details: in vivo
[3] = 1-Octanol/phosphate buffer partition coefficient, logP of the compound at pH 7.40; format: physicochemical; details: pH 7.4
[4] = Induction of anion transport in NaCl loaded POPC liposomes assessed transmembrane permeability by measuring chloride efflux by ion selective electrode
[5] = Dissociation constant, pKa of compound; format: physicochemical

Compound	logD [3]	EC50 [4] [mol%]	further results
COC(=O)C1=C(C)NC(C)=C(C(=O)OC)C1c1cccc(NC(=O)NCCCN2CCC(c3cccc(OC)c3)CC2)c1	–	–	Papp [1]: 1.9 ×10⁻⁶ cm/s; bioavailability [2]: 0.1%
Cc1cccc(Nc2ccncc2S(=O)(=O)N/C(=C/[N+](=O)[O-])NC(C)C)c1	1.12	–	–
O=c1c(Nc2cc(C(F)(F)F)cc(C(F)(F)F)c2)c(Nc2cc(C(F)(F)F)cc(C(F)(F)F)c2)c1=O	–	0.01	–
Cc1cccc(Nc2ccncc2S(=O)(=O)NC(=NC#N)NC(C)C)c1	0.86	–	pKa [5]: 6
FC(F)(F)c1cc(NC(=S)Nc2cc(C(F)(F)F)cc(C(F)(F)F)c2)cc(C(F)(F)F)c1	–	0.16	–
Cc1cccc(Nc2ccncc2S(=O)(=O)NC(=S)NC(C)C)c1	0.61	–	–
COC(=O)C1=C(C)NC(C)=C(C(=O)OC)C1c1cccc(N/C(=N/C#N)NCCCN2CCC(c3cccc(OC)c3)CC2)c1	–	–	Papp [1]: 4.3 ×10⁻⁶ cm/s
O=C(Nc1cc(C(F)(F)F)cc(C(F)(F)F)c1)Nc1cc(C(F)(F)F)cc(C(F)(F)F)c1	–	0.3	–
Cc1cccc(Nc2ccncc2S(=O)(=O)NC(=O)NC(C)C)c1 [TORSEMIDE]	0.45	–	pKa [5]: 6.68
